Measurements published in EPA's ToxRefDB 2.

Legend:
mouse [1] = settings: Combined chronic toxicity/carcinogenicity, b6c3f1, Oral, Gavage/Intubation, dose end: 103 week, group: systemic
mouse [2] = settings: Subchronic oral toxicity in rodents, b6c3f1, Gavage/Intubation, dose end: 13 week, group: systemic
rat [3] = settings: Combined chronic toxicity/carcinogenicity; fischer; Oral; Gavage/Intubation; dose end: 103 week; group: systemic; systemic / hematology / erythrocyte (rbc) count differential / erythrocyte (rbc) + systemic / hematology / hematocrit (hct) / hematocrit (…
rat [4] = settings: Subchronic oral toxicity in rodents, Fischer, Gavage/Intubation, dose end: 13 week, group: systemic, systemic / hematology / erythrocyte (rbc) count differential / erythrocyte (rbc) + systemic / hematology / hematocrit (hct) / hematocrit (…
mouse [5] = settings: Combined chronic toxicity/carcinogenicity; other; Oral; Feed; dose end: 365 day; group: systemic; systemic / in life observation / body weight / body weight
rat [6] = settings: Combined chronic toxicity/carcinogenicity; fischer; Oral; Feed; dose end: 365 day; group: systemic; systemic / pathology microscopic / liver / hepatocellular carcinoma + systemic / pathology microscopic / testes / adenoma + systemic / in …
dog [7] = settings: Chronic toxicity, beagle, Oral, Gavage/Intubation, dose end: 182 day, group: systemic, systemic / in life observation / clinical signs / defecation (diarrhea) + systemic / in life observation / clinical signs / feces
mouse [8] = settings: Sub-acute repeat dose toxicity, Oral, Gavage/Intubation, dose end: 28 day
mouse [9] = settings: Sub-acute repeat dose toxicity, Oral, Gavage/Intubation, dose end: 28 day; remark: listed apart in the source
mouse [10] = settings: Chronic toxicity, Oral, Gavage/Intubation, dose end: 182 day
dog [11] = settings: Chronic toxicity, beagle, Oral, Gavage/Intubation, dose end: 182 day, group: systemic
dog [12] = settings: Sub-acute repeat dose toxicity, beagle, Oral, Gavage/Intubation, dose end: 28 day, group: systemic
dog [13] = settings: Sub-acute repeat dose toxicity, beagle, Oral, Gavage/Intubation, dose end: 14 day, group: systemic
mouse [14] = settings: Sub-acute repeat dose toxicity, Oral, Gavage/Intubation, dose end: 14 day, group: systemic
[15] = systemic / pathology microscopic / blood / lymphoma malignant + systemic / pathology microscopic / kidney / hemosiderosis + systemic / …
[16] = systemic / pathology microscopic / blood / lymphoma malignant + systemic / pathology microscopic / liver / hematopoietic cell proliferation…
[17] = systemic / hematology / erythrocyte (rbc) count differential / erythrocyte (rbc) + systemic / hematology / hematocrit (hct) / hematocrit (…
[18] = systemic / hematology / hematocrit (hct) / hematocrit (hct) + systemic / pathology microscopic / spleen / hematopoietic cell proliferation…
[19] = group: maternal, reproductive / reproductive performance / estrous cycle / absent corpora lutea
[20] = group: systemic, systemic / clinical chemistry / alkaline phosphatase (alp/alk) / alkaline phosphatase (alp/alk) + systemic / hematology / mean corpuscular (…
[21] = group: systemic, systemic / hematology / mean corpuscular (cell) volume (mcv) / mean corpuscular (cell) volume (mcv) + systemic / hematology / mean …
[22] = group: reproductive, reproductive / reproductive performance / estrous cycle / absent corpora lutea
[23] = group: systemic, systemic / hematology / erythrocyte (rbc) count differential / erythrocyte (rbc) + systemic / in life observation / body weight / body …
[24] = systemic / in life observation / clinical signs / abnormal feces
[25] = systemic / in life observation / clinical signs / abnormal feces + systemic / in life observation / body weight / body weight + systemic / …
[26] = systemic / clinical chemistry / cholesterol / cholesterol + systemic / clinical chemistry / triglycerides / triglycerides + systemic / …
[27] = systemic / in life observation / clinical signs / defecation (diarrhea) + systemic / in life observation / clinical signs / delayed sexual …
[28] = systemic / in life observation / body weight / body weight + systemic / in life observation / clinical signs / defecation (diarrhea) + …
[29] = systemic / pathology gross / oral mucosa / discolored
[30] = systemic / clinical chemistry / albumin / albumin + systemic / clinical chemistry / protein / protein + systemic / hematology / erythrocyte…
[31] = systemic / in life observation / body weight / body weight

Cl.Nc1ccc(Cl)cc1 [4-Chloroaniline hydrochloride]
LOAEL (mouse [1]; [15]): > 30 mg/kg/day | NOAEL (mouse [1]; [15]): ≥ 30 mg/kg/day | LEL (mouse [1]; [16]): 3 mg/kg/day | NEL (mouse [1]; [16]): < 3 mg/kg/day | LOAEL (mouse [2]; [17]): 15 mg/kg/day | NOAEL (mouse [2]; [17]): 7.5 mg/kg/day | LEL (mouse [2]; [18]): 7.5 mg/kg/day | NEL (mouse [2]; [18]): < 7.5 mg/kg/day | LEL (rat [3]): 2 mg/kg/day | LOAEL (rat [3]): 6 mg/kg/day | NEL (rat [3]): < 2 mg/kg/day | NOAEL (rat [3]): 2 mg/kg/day | LEL (rat [4]): 5 mg/kg/day | LOAEL (rat [4]): > 80 mg/kg/day | NEL (rat [4]): < 5 mg/kg/day | NOAEL (rat [4]): ≥ 80 mg/kg/day

NC(=O)CCCCC(N)=O [Adipamide]
LEL (mouse [5]): 3600 mg/kg/day | LOAEL (mouse [5]): > 3600 mg/kg/day | NEL (mouse [5]): < 3600 mg/kg/day | NOAEL (mouse [5]): ≥ 3600 mg/kg/day | LEL (rat [6]): 1200 mg/kg/day | LOAEL (rat [6]): > 1200 mg/kg/day | NEL (rat [6]): < 1200 mg/kg/day | NOAEL (rat [6]): ≥ 1200 mg/kg/day

CNC(=O)c1ccccc1Sc1ccc2c(/C=C/c3ccccn3)n[nH]c2c1 [Axitinib]
LEL (dog [7]): 1 mg/kg/day | LOAEL (dog [7]): > 5 mg/kg/day | NEL (dog [7]): < 1 mg/kg/day | NOAEL (dog [7]): ≥ 5 mg/kg/day | LEL (mouse [8]; [19]): 125 mg/kg/day | LOAEL (mouse [8]; [19]): > 125 mg/kg/day | NEL (mouse [8]; [19]): 15 mg/kg/day | NOAEL (mouse [8]; [19]): ≥ 125 mg/kg/day | LOAEL (mouse [8]; [20]): > 125 mg/kg/day | NEL (mouse [8]; [20]): 5 mg/kg/day | NOAEL (mouse [8]; [20]): ≥ 125 mg/kg/day | LEL (mouse [8]; [21]): 15 mg/kg/day | LEL (mouse [9]; [19]): 125 mg/kg/day | LOAEL (mouse [9]; [19]): > 125 mg/kg/day | NEL (mouse [9]; [19]): 15 mg/kg/day | NOAEL (mouse [9]; [19]): ≥ 125 mg/kg/day | LOAEL (mouse [9]; [20]): > 125 mg/kg/day | NEL (mouse [9]; [20]): 5 mg/kg/day | NOAEL (mouse [9]; [20]): ≥ 125 mg/kg/day | LEL (mouse [9]; [21]): 15 mg/kg/day | LEL (mouse [10]; [22]): 5 mg/kg/day | LOAEL (mouse [10]; [22]): > 125 mg/kg/day | NEL (mouse [10]; [22]): < 5 mg/kg/day | NOAEL (mouse [10]; [22]): ≥ 125 mg/kg/day | LOAEL (mouse [10]; [23]): > 125 mg/kg/day | NEL (mouse [10]; [23]): 5 mg/kg/day | NOAEL (mouse [10]; [23]): ≥ 125 mg/kg/day | LEL (mouse [10]; group: systemic, systemic / hematology / erythrocyte (rbc) count differential / erythrocyte (rbc) + systemic / in life observation / clinical signs / poor …): 15 mg/kg/day | LEL (dog [11]; [24]): 1 mg/kg/day | NEL (dog [11]; [24]): < 1 mg/kg/day | LOAEL (dog [11]; [25]): > 5 mg/kg/day | NOAEL (dog [11]; [25]): ≥ 5 mg/kg/day | LOAEL (dog [12]; [26]): > 50 mg/kg/day | NOAEL (dog [12]; [26]): ≥ 50 mg/kg/day | LEL (dog [12]; [27]): 5 mg/kg/day | NEL (dog [12]; [27]): < 5 mg/kg/day | LOAEL (dog [13]; [28]): > 150 mg/kg/day | NOAEL (dog [13]; [28]): ≥ 150 mg/kg/day | LEL (dog [13]; [29]): 12 mg/kg/day | NEL (dog [13]; [29]): < 12 mg/kg/day | LOAEL (mouse [14]; [30]): > 250 mg/kg/day | NOAEL (mouse [14]; [30]): ≥ 250 mg/kg/day | LEL (mouse [14]; [31]): 25 mg/kg/day | NEL (mouse [14]; [31]): < 25 mg/kg/day
